Holding throughout (test): Kinase selectivity, DiscoverX scanMAX Kinase assay panel (% control)
Type in all cases: binding

In assay [1] the target is T1, kinases of the scanMAX Kinase assay panel (Homo sapiens, UniProt P00533, L858R/T790M).
T1 construct: purchased DiscoverX Co. (contract measurement) scanMAX Kinase assay panel
The note with it: EGFR(L858R, T790M); 1 uM. Put shortly:
(§1)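 Compounds tested at 1 uM against the scanMAX kinase panel. Signal expressed as % control = (compound − positive control)/(DMSO negative control − positive control) × 100, where positive control = 0% and DMSO = 100%; below 35% counted as activity on that kinase.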

For assay [2], the target named is T2, kinases of the scanMAX Kinase assay panel (Homo sapiens, UniProt P42336).
T2 construct: purchased DiscoverX Co. (contract measurement) scanMAX Kinase assay panel
T2 sequence (P42336 whole entry): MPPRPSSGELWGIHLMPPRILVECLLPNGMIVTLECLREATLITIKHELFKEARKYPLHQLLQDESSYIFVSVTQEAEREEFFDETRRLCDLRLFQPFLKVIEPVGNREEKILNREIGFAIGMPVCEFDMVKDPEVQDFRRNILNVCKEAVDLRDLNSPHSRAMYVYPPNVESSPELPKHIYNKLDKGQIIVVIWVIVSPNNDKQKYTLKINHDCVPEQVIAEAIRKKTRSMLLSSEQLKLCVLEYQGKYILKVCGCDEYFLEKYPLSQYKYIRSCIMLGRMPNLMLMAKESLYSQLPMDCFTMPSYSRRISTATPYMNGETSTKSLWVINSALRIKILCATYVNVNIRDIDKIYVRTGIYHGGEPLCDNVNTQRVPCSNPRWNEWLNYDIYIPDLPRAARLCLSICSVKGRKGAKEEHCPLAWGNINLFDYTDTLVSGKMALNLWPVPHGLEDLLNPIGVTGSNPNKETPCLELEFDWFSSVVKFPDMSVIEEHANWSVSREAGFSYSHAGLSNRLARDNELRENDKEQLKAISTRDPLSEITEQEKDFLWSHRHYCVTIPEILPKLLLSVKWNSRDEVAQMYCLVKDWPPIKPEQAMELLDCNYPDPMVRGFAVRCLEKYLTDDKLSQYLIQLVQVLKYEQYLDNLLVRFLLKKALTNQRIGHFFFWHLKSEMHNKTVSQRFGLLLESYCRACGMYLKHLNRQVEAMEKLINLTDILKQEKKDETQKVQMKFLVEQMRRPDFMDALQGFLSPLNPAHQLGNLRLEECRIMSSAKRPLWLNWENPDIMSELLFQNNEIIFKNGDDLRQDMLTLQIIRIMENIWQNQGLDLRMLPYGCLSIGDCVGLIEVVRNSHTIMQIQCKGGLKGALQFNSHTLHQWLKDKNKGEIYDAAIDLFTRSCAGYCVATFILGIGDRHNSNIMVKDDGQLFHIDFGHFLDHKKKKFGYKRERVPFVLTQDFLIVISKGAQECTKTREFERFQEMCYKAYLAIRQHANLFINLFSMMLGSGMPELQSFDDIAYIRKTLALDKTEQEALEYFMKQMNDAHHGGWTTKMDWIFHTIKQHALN
The note with it: PIK3CA; 1 uM. Put shortly: as §1

Assay [3] concerns the target T3, kinases of the scanMAX Kinase assay panel (Homo sapiens, UniProt Q16584).
T3 construct: purchased DiscoverX Co. (contract measurement) scanMAX Kinase assay panel
The note with it: MLK3; 1 uM. Put shortly:
as §1

For assay [4], the target named is T4, kinases of the scanMAX Kinase assay panel (Homo sapiens, UniProt Q32MK0).
T4 construct: purchased DiscoverX Co. (contract measurement) scanMAX Kinase assay panel
T4 sequence (Q32MK0 1-819): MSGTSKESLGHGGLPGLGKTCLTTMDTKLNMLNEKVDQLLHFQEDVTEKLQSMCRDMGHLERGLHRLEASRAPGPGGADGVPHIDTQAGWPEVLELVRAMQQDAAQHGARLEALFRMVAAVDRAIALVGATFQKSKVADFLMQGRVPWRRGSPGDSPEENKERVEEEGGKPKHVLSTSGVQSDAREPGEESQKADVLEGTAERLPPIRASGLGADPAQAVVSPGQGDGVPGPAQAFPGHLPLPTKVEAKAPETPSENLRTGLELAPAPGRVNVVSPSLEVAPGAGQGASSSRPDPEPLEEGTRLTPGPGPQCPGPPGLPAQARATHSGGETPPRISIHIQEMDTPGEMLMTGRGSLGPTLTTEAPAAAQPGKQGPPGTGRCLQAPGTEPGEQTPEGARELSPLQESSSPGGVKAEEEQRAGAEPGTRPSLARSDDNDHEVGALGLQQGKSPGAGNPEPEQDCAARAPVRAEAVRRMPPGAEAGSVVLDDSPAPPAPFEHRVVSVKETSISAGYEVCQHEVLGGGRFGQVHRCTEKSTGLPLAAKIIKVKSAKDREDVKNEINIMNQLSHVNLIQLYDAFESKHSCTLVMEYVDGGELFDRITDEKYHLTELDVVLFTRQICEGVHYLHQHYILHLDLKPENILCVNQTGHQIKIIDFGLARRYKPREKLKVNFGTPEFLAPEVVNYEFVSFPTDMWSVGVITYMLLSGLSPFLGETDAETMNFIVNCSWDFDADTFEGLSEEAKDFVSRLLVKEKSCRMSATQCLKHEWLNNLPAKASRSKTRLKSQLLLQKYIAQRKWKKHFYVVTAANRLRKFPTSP
To be noted: MLCK; 1 uM. Put shortly:
as §1

In assay [5] the target is T5, kinases of the scanMAX Kinase assay panel (Homo sapiens, UniProt Q9BXA7).
T5 construct: purchased DiscoverX Co. (contract measurement) scanMAX Kinase assay panel
T5 sequence (Q9BXA7 1-367): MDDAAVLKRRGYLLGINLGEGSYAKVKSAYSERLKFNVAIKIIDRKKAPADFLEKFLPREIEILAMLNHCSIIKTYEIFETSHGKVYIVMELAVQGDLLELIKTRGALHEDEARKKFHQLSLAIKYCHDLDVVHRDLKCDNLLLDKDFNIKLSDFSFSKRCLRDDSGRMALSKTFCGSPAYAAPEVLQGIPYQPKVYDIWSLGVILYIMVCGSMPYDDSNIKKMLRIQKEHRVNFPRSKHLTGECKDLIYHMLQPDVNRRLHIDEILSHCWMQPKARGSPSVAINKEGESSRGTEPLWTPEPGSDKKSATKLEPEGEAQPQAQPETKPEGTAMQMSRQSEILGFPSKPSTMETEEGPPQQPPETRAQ
The note with it: kinase TSSK1B; 1 uM in DMSO. Put shortly:
as §1

Assay [6] has as its target T6, kinases of the scanMAX Kinase assay panel (Homo sapiens, UniProt Q9BZL6).
T6 construct: purchased DiscoverX Co. (contract measurement) scanMAX Kinase assay panel
T6 sequence (Q9BZL6 1-878): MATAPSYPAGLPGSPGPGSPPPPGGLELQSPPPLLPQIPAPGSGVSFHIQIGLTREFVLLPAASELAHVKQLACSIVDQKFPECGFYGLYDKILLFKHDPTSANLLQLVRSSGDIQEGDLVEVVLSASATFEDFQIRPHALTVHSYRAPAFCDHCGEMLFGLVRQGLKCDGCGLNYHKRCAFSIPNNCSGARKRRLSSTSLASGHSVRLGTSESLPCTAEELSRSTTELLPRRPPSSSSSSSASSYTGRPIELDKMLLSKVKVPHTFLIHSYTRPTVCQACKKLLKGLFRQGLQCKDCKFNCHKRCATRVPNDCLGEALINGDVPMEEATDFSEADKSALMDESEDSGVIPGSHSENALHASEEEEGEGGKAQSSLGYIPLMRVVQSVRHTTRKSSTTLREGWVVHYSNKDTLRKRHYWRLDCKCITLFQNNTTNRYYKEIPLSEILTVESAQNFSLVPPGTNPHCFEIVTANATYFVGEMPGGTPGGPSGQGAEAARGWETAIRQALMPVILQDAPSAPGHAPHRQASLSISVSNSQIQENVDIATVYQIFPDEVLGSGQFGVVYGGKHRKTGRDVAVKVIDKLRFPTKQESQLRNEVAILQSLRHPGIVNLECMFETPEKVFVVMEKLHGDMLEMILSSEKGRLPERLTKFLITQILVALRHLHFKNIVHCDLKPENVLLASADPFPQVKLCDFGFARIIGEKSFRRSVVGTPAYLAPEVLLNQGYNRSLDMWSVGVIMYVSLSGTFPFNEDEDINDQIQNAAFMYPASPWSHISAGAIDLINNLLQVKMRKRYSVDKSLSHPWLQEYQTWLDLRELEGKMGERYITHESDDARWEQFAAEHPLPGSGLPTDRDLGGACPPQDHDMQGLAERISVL
The note with it: PRKD2; 1 uM. Put shortly: as §1

Assay [7] has as its target T7, kinases of the scanMAX Kinase assay panel (Homo sapiens, UniProt Q9UM73, L1196M).
T7 construct: purchased DiscoverX Co. (contract measurement) scanMAX Kinase assay panel
To be noted: ALK(L1196M); 1 uM. Put shortly:
as §1

The values that follow come from patent US11208412B2 (DAEGU-GYEONGBUK MEDICAL INNOVATION FOUNDATION, priority 2017, dated 2021).

T7 sequence (Q9UM73 19-1620 L1196M): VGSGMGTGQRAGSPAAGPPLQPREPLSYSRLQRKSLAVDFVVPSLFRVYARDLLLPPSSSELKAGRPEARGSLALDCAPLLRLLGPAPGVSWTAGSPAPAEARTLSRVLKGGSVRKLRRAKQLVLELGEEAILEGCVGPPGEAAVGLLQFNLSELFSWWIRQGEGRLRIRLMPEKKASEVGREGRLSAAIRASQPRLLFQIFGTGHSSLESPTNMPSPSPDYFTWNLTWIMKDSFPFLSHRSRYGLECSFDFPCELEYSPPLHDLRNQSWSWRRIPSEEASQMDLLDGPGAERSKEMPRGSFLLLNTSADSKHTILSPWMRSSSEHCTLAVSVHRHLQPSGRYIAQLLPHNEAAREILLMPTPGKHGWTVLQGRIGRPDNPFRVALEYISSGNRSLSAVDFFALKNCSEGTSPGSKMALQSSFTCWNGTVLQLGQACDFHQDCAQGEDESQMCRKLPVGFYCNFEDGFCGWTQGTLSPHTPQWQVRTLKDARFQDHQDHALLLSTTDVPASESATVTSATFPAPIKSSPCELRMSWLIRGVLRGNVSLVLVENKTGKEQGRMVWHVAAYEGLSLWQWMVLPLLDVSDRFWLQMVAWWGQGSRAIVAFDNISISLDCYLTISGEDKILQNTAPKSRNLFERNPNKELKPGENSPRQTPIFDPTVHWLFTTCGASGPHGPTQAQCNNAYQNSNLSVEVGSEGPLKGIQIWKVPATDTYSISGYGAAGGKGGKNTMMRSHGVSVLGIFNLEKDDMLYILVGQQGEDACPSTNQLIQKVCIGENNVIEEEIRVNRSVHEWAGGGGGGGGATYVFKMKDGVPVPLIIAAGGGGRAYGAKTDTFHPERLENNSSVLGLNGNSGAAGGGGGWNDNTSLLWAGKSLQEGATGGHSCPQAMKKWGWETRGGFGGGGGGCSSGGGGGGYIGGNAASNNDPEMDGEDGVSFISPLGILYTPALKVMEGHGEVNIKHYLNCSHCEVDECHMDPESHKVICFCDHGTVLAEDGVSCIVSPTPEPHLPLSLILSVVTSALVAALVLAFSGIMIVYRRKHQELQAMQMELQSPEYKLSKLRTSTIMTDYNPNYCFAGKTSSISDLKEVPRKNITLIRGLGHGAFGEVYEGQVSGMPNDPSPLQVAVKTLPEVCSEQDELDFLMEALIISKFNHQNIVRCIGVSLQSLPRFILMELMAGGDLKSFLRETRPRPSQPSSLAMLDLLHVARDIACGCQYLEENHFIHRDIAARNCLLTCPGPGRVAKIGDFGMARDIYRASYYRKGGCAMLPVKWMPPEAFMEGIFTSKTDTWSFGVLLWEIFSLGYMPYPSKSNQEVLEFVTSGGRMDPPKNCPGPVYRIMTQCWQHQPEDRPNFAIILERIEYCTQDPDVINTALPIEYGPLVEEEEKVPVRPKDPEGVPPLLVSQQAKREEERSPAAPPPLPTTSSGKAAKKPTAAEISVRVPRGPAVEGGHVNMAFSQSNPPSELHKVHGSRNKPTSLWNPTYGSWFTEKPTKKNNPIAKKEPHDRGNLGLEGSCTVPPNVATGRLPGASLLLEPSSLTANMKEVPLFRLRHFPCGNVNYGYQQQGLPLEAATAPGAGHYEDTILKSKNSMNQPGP
T1 sequence (P00533 25-1210 T790M/L858R): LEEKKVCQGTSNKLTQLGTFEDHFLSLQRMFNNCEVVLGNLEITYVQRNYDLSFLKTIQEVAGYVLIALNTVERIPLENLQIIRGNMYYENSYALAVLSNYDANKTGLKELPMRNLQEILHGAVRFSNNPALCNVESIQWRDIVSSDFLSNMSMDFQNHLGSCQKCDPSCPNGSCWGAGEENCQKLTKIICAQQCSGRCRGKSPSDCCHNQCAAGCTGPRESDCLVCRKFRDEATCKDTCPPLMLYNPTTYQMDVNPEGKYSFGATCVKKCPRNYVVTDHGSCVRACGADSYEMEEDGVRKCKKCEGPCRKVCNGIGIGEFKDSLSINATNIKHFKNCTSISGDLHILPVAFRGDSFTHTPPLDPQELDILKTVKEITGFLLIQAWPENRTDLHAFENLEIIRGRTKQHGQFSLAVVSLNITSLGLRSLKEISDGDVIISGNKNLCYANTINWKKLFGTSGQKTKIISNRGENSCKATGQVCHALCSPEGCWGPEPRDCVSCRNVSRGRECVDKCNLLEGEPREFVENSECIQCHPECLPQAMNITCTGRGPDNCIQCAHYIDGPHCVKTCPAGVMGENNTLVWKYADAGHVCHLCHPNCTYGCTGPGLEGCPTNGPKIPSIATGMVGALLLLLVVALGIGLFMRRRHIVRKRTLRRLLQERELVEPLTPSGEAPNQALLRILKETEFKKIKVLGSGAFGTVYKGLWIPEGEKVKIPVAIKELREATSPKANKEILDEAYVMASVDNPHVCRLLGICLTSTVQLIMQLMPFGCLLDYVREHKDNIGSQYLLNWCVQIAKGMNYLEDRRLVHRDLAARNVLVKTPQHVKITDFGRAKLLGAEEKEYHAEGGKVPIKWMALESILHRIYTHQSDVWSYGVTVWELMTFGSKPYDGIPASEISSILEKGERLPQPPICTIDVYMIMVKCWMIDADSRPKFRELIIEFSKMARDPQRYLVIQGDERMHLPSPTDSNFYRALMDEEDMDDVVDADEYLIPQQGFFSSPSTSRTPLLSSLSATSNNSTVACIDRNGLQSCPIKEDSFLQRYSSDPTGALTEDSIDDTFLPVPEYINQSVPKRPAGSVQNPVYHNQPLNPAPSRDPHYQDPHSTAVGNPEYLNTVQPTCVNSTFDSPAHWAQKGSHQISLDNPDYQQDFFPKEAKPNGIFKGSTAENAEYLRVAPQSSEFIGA
T3 sequence (Q16584 whole entry): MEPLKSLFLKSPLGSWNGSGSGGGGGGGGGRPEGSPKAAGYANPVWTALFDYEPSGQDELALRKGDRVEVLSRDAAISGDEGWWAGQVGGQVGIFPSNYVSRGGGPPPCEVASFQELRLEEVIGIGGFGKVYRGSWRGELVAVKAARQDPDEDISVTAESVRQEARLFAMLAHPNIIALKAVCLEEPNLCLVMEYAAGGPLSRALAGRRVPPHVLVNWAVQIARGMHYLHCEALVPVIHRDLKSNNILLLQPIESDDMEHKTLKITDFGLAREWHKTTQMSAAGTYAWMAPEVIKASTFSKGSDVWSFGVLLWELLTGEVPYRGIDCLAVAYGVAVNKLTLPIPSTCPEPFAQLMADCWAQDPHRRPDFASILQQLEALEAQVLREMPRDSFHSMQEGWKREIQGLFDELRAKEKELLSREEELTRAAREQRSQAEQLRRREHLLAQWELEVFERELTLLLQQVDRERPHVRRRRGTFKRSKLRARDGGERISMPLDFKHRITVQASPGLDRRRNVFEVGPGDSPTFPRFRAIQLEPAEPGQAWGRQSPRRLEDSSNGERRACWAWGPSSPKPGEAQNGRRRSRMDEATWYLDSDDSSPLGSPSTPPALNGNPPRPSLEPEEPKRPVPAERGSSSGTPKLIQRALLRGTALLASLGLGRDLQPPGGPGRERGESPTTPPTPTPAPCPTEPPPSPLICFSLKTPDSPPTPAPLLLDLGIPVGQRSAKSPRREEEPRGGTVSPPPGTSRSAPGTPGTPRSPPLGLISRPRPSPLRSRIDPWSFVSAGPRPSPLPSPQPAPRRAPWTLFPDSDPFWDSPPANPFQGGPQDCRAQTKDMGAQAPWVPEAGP

As to `CC1(Nc2nc(Nc3cnn([C@H]4CCN(C5COC5)C[C@@H]4F)c3Cl)nc3[nH]cc(C#N)c23)CC1` [Example 52, 2-((5-chloro-1-((3S,4S)-3-fluoro-1-(oxetane-3-yl)piperidine-4-yl)-1H-pyrazole-4-yl)amino)((1-methylcyclopropyl)amino)-7H-pyrrolo[2,3-d]pyrimidine-5-carbonitrile], the remaining binding at 1 µM in assay [1] was determined as 2.3%; in assay [2], 60%; in assay [3] it was 3.1%; in assay [4], 9%; in assay [5], 0.6%; in assay [6], 9.1%. The remaining binding at 1 µM in assay [7] amounted to 9.9%.
Regarding `CCNc1nc(Nc2ccc(C(=O)N3CCC(N4CCOCC4)CC3)cc2OC)nc2[nH]cc(C(F)(F)F)c12` [Example 104, (4-((4-(ethylamino)-5-(trifluoromethyl)-7H-pyrrolo[2,3-d]pyrimidine-2-yl)amino)-3-methoxyphenyl)(4-morpholinopiperidine-1-yl)methanone], the remaining binding at 1 µM in assay [1] was found to be 55%; in assay [2] it was 99%; in assay [3], 86%; in assay [4], 92%; in assay [5], 0%; in assay [6] it was 16%. In assay [7], this compound showed a remaining binding at 1 µM of 0.75%.
For `CNc1nc(Nc2ccc(C(=O)N3CCOCC3)cc2OC)nc2[nH]cc(C#N)c12` [Example 1, 2-((2-methoxy-4-(morpholine-4-carbonyl)phenyl)amino)-4-(methylamino)-7H-pyrrolo[2,3-d]pyrimidine-5-carbonitrile], the remaining binding at 1 µM in assay [1] amounted to 54%; in assay [2], 87%; in assay [3] it was 78%; in assay [4] it was 96%; in assay [5], 22%; in assay [6], 28%. The same compound showed a remaining binding at 1 µM in assay [7] of 33%.
